Assay results as given in patent publication US10221138B2, “Biaryl derivatives as GPR120 agonists” (LG CHEM, LTD., priority 2013, dated 2019).

What follows are molecules tested against T1, hGPR120 (Homo sapiens, UniProt Q5NUL3) (assay: Measurement of activity of GPR120 agonist (cell-based calcium fluorescence assay)). Conditions: CHO-K1 cells expressing Ga16 and hGPR120, Calcium 5 dye fluorescence; activity class; read-out: EC50.
T1 construct: expressed in transfected cells; host or cells: CHO-K1
T1 sequence (Q5NUL3 1-361): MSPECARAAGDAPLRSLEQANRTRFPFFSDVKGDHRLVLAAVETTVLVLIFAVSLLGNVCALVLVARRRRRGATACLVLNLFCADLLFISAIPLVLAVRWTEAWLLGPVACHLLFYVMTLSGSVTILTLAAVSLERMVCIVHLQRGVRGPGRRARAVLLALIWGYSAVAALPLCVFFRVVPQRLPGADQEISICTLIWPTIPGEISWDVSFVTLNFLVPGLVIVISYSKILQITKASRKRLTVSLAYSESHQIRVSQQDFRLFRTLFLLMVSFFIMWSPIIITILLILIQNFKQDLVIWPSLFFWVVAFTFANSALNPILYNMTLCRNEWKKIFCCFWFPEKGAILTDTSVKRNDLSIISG
In short: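 CHO-K1 cells co-expressing Gα16 and hGPR120, plated 18 h, loaded with Calcium 5 dye for 1 h at 37 °C, then given serially diluted agonists (final 0.5% DMSO). Fluorescence increase expressed as relative % of the 1% DMSO-only signal.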

Row | Structure (SMILES) | EC50
1 | CCC(C)Sc1ncccc1-c1cc(F)c(OCCCC(=O)O)c(F)c1 (stereo not shown) [Example 13, 4-[4-(2-sec-butylsulfanyl-pyridin-3-yl)-2,6-difluoro-phenoxy]-butyric acid] | 200 to 2000 nM
2 | O=C(O)CC1(COc2c(F)cc(-c3cccnc3SC3CCC3)cc2F)CC1 [Example 33, 2-[1-[[4-(2-cyclobutylsulfanyl-3-pyridyl)-2,6-difluoro-phenoxy]methyl]cyclopropyl]acetic acid] | 200 to 2000 nM
3 | CC(C)Sc1ncccc1-c1ccc(SCCCC(=O)O)cc1 [Example 148, 4-[4-(2-isopropylsulfanyl-pyridin-3-yl)-phenylsulfanyl]-butyric acid] | < 200 nM
4 | O=C(O)CCCSc1ccc(-c2cccc(Oc3ccccc3)c2)cc1 [Example 125, 4-(3′-phenoxy-biphenyl-4-ylsulfanyl)-butyric acid] | < 200 nM
5 | CC(C)Oc1ncccc1-c1ccc(SCCCC(=O)O)cc1 [Example 131, 4-[4-(2-isopropoxy-pyridin-3-yl)-phenylsulfanyl]-butyric acid] | 200 to 2000 nM
6 | CC(C)CCSc1ncccc1-c1cc(F)c(OCCCC(=O)O)c(F)c1 [Example 31, 4-{2,6-difluoro-4-[2-(3-methyl-butylsulfanyl)-pyridin-3-yl]-phenoxy}-butyric acid] | 200 to 2000 nM
7 | O=C(O)CCCOc1c(F)cc(-c2cccc(OCC3CC3)n2)cc1F [Example 24, 4-[4-[6-(cyclopropylmethoxy)-2-pyridyl]-2,6-difluoro-phenoxy]butyric acid] | < 200 nM
8 | O=C(O)CCCOc1c(F)cc(-c2cccc(NC3CCCC3)c2)cc1F [Example 80, 4-[4-[3-(cyclopentylamino)phenyl]-2,6-difluoro-phenoxy]butanoic acid] | < 200 nM
9 | O=C(O)CCCOc1c(F)cc(-c2ccccc2NC2CCC2)cc1F [Example 89, 4-[4-[2-(cyclobutylamino)phenyl]-2,6-difluoro-phenoxy]butanoic acid] | < 200 nM
10 | O=C(O)CCCOc1c(F)cc(-c2cccnc2OCC2CC2)cc1F [Example 46, 4-[4-(2-cyclopropylmethoxy-pyridin-3-yl)-2,6-difluoro-phenoxy]-butyric acid] | 200 to 2000 nM
11 | O=C(O)CCCOc1c(F)cc(-c2cccnc2NC2CC2)cc1F [Example 77, 4-[4-[2-(cyclopropylamino)-3-pyridyl]-2,6-difluoro-phenoxy]butanoic acid] | > 20000 nM
12 | O=C(O)CCCOc1ccc(-c2cccc(OC3CCC3)n2)cc1C(F)(F)F [Example 27, 4-[4-[6-(cyclobutoxy)-2-pyridyl]-2-(trifluoromethyl)phenoxy]butyric acid] | < 200 nM
13 | C[C@H](CCC(=O)O)Oc1c(F)cc(-c2cccc(Oc3ccccc3)c2)cc1F [Example 118, (4R)-4-[2,6-difluoro-4-(3-phenoxyphenyl)phenoxy]pentanoic acid] | < 200 nM
14 | O=C(O)CCCSc1ccc(-c2cccnc2SC2CCCC2)cc1 [Example 149, 4-[4-(2-cyclopentylsulfanyl-pyridin-3-yl)-phenylsulfanyl]-butyric acid] | < 200 nM
15 | CCCNc1ccccc1-c1cc(F)c(OCCCC(=O)O)c(F)c1 [Example 81, 4-[2,6-difluoro-4-[2-(propylamino)phenyl]phenoxy]butanoic acid] | < 200 nM
16 | O=C(O)CCCSc1ccc(-c2cccc(SC3CCCC3)n2)cc1 [Example 133, 4-[4-(6-cyclopentylsulfanyl-pyridin-2-yl)-phenylsulfanyl]-butyric acid] | 200 to 2000 nM
17 | O=C(O)CCCOc1c(F)cc(-c2cccc(Oc3ccccc3)n2)cc1F [Example 3, 4-[2,6-difluoro-4-(6-phenoxy-2-pyridyl)phenoxy]butyric acid] | < 200 nM
18 | O=C(O)CCCOc1c(F)cc(-c2cccc(Nc3ccccc3)n2)cc1F [Example 16, 4-[4-(6-anilino-2-pyridyl)-2,6-difluoro-phenoxy]butyric acid] | 200 to 2000 nM
19 | O=C(O)CCCSc1c(F)cc(-c2cccc(OC3CCCC3)n2)cc1F [Example 155, 4-[4-(6-cyclopentyloxy-pyridin-2-yl)-2,6-difluoro-phenylsulfanyl]-bytyric acid] | < 200 nM
20 | O=C(O)CCCSc1c(F)cc(-c2cccc(OC3CCCC3)c2)cc1F [Example 122, 4-(3′-cyclopentyloxy-3,5-difluoro-biphenyl-4-ylsulfanyl)-butyric acid] | < 200 nM
21 | CCCNc1ccccc1-c1ccc(OCCCC(=O)O)cc1 [Example 86, 4-[4-[2-(propylamino)phenyl]phenoxy]butanoic acid] | 200 to 2000 nM
22 | O=C(O)CCCCCOc1c(F)cc(-c2cccnc2OC2CCC2)cc1F [Example 271, 6-[4-[2-(cyclobutoxy)-3-pyridyl]-2,6-difluoro-phenoxy]hexanoic acid] | 200 to 2000 nM

Results, then the molecule that gave them:

Row | EC50 | Structure (SMILES)
23 | 200 to 2000 nM | O=C(O)CCCSc1c(F)cc(-c2cccnc2NCC2CC2)cc1F [Example 251, 4-{4-[2-(cyclopropylmethyl-amino)-pyridin-3-yl]-2,6-difluoro-phenylsulfanyl}-butyric acid]
24 | 2000 to 20000 nM | CCCOc1ccc(-c2ccc(SCCCC(=O)O)c(F)c2)c(OCCC)c1 [Example 192, 4-(3-fluoro-2′,4′-dipropoxy-biphenyl-4-ylsulfanyl)-butyric acid]
25 | 2000 to 20000 nM | O=C(O)CCCCCCOc1c(F)cc(-c2cccnc2OC2CCCC2)cc1F [Example 263, 7-[4-(2-cyclopentyloxy-pyridin-3-yl)-2,6-difluoro-phenoxy]-heptanoic acid]
26 | < 200 nM | O=C(O)CCCSc1ccc(-c2cccc(SC3CCC3)n2)cc1 [Example 156, 4-[4-(6-cyclobutylsulfanyl-pyridin-2-yl)-phenylsulfanyl]-butyric acid]
27 | < 200 nM | O=C(O)CCCSc1ccc(-c2cccnc2OCC2CCC2)cc1F [Example 246, 4-[4-(2-cyclobutylmethoxy-pyridin-3-yl)-2-fluoro-phenylsulfanyl]-butyric acid]
28 | 200 to 2000 nM | Cc1ccc(-c2ccc(SCCCC(=O)O)c(F)c2)c(OC2CCCC2)n1 [Example 189, 4-[4-(2-cyclopentyloxy-6-methyl-pyridin-3-yl)-2-fluoro-phenylsulfanyl]-butyric acid]
29 | 200 to 2000 nM | O=C(O)CCCCCSc1c(F)cc(-c2cccnc2SC2CCCC2)cc1F [Example 277, 6-[4-(2-cyclopentylsulfanyl-pyridin-3-yl)-2,6-difluoro-phenylsulfanyl]-hexanoic acid]
30 | 2000 to 20000 nM | O=C(O)CCCOc1c(F)cc(-c2cccnc2OC2CCC(O)C2)cc1F (stereo not shown) [Example 227, 4-{2,6-difluoro-4-[2-(3-hydroxy-cyclopentyloxy)-pyridin-3-yl]-phenoxy}-butyric acid]
31 | < 200 nM | O=C(O)CCCSc1ccc(-c2ccccc2NC2CCCC2)cc1 [Example 208, 4-(2′-cyclopentylamino-biphenyl-4-ylsulfanyl)-butyric acid]
32 | < 200 nM | Cc1cnc(OC2CCCC2)c(-c2cc(F)c(OCCCC(=O)O)c(F)c2)c1 [Example 209, 4-[4-(2-cyclopentyloxy-5-methyl-pyridin-3-yl)-2,6-difluoro-phenoxy]-butyric acid]
33 | < 200 nM | O=C(O)CCCCOc1c(F)cc(-c2cccnc2OCC2CCC2)cc1F [Example 196, 5-[4-(2-cyclobutylmethoxy-pyridin-3-yl)-2,6-difluoro-phenoxy]-pentanoic acid]
34 | 200 to 2000 nM | O=C(O)CCCSc1ccc(-c2cccnc2OC2CCOC2)cc1F (stereo not shown) [Example 245, 4-{2-fluoro-4-[2-(tetrahydrofuran-3-yloxy)-pyridin-3-yl]-phenylsulfanyl}-butyric acid]
35 | < 200 nM | O=C(O)CCCOc1c(F)cc(-c2cccnc2OC2CCCCC2)cc1F [Example 228, 4-[4-(2-cyclohexyloxy-pyridin-3-yl)-2,6-difluoro-phenoxy]-butyric acid]
36 | < 200 nM | CCCSc1ncccc1-c1cc(F)c(OCCCC(=O)O)c(F)c1 [Example 204, 4-[2,6-difluoro-4-(2-propylsulfanyl-pyridin-3-yl)-phenoxy]-butanoic acid]
37 | < 200 nM | O=C(O)CCCCOc1c(F)cc(-c2cccnc2OC2CCCC2)cc1F [Example 232, 5-[4-(2-cyclopentyloxy-pyridin-3-yl)-2,6-difluoro-phenoxy]-pentanoic acid]
38 | 200 to 2000 nM | Cc1cc(F)c(OC2CCCC2)c(-c2ccc(SCCCC(=O)O)c(F)c2)c1 [Example 195, 4-(2′-cyclopentyloxy-3,3′-difluoro-5′-methyl-biphenyl-4-ylsulfanyl)-butyric acid]
39 | < 200 nM | O=C(O)CCCCOc1ccc(-c2cccnc2OC2CCCC2)cc1F [Example 267, 5-[4-(2-cyclopentyloxy-pyridin-3-yl)-2-fluoro-phenoxy]-pentanoic acid]
40 | < 200 nM | O=C(O)CCCSc1c(F)cc(-c2cccc(SC3CCC3)n2)cc1F [Example 158, 4-[4-(6-cyclobutylsulfanyl-pyridin-2-yl)-2,6-difluoro-phenylsulfanyl]-butyric acid]
41 | < 200 nM | O=C(O)CCCCCOc1c(F)cc(-c2cccnc2OC2CCCC2)cc1F [Example 262, 6-[4-(2-cyclopentyloxy-pyridin-3-yl)-2,6-difluoro-phenoxy]-hexanoic acid]
42 | < 200 nM | CC(C)Sc1cccc(-c2cc(F)c(OCCCCC(=O)O)c(F)c2)n1 [Example 237, 5-[2,6-difluoro-4-(6-isopropylsulfanyl-2-pyridyl)phenoxy]pentanoic acid]
43 | < 200 nM | O=C(O)CCCSc1ccc(-c2cccnc2SC2CCCC2)cc1F [Example 164, 4-[4-(2-cyclopentylsulfanyl-pyridin-3-yl)-2-fluoro-phenylsulfanyl]-butyric acid]
